Test results taken from ChEMBL document CHEMBL1135186, “Novel diphenylalkyl piperazine derivatives with dual calcium antagonistic and antioxidative activities” (Bioorg Med Chem Lett, 2002).

How the values were obtained:
[1] = species: Canis familiaris; experiment: Concentration of the test compound required to inhibit the auto oxidative lipid peroxidations in canine brain homogenates by 50% was determined; format: functional; settings: Canis lupus familiaris
[2] = species: Rattus norvegicus; experiment: PD2 value was calculated as -log value of the concentration of the test compound to inhibit 60 mM KCl-induced contractions to 50% expressed as calcium antagonistic activity; format: functional
[3] = species: Canis familiaris; experiment: Inhibitory activity against KCl induced contractile response in isolated canine coronary artery was determined expressed as vasodilation effect; format: functional, Canis lupus familiaris
[4] = species: Canis familiaris; experiment: Inhibitory activity against KCl induced contractile response in isolated canine mesenteric artery was determined expressed as vasodilation effect; format: functional, Canis lupus familiaris
[5] = species: Canis familiaris; experiment: Inhibitory activity against KCl induced contractile response in isolated canine renal artery was determined expressed as vasodilation effect; format: functional, Canis lupus familiaris
[6] = species: Canis familiaris; experiment: Inhibitory activity against KCl induced contractile response in isolated canine basilar artery was determined expressed as vasodilation effect; format: functional, Canis lupus familiaris

SMILES	IC50 [1] [µM]	PD2 [2]	PD2 [3]	PD2 [4]	PD2 [5]	PD2 [6]
OC(CSc1ccccc1)CN1CCN(CCCC(c2ccc(F)cc2)c2ccc(F)cc2)CC1 (centres undefined)	15	6.79	6.38	5.8	5.73	7
CC(=O)N(CC(O)CN1CCN(CCCC(c2ccc(F)cc2)c2ccc(F)cc2)CC1)c1ccccc1 (centres undefined)	390	5.98	–	–	–	–
COC(CNc1ccccc1)CN1CCN(CCCC(c2ccc(F)cc2)c2ccc(F)cc2)CC1 (centres undefined)	15	–	–	–	–	–
OC(CNc1ccccc1)CN1CCN(CCCC(c2ccc(F)cc2)c2ccc(F)cc2)CC1 (centres undefined)	6.5	6.7	6.32	6.1	6.27	6.76
OC(CSCc1ccccc1)CN1CCN(CCCC(c2ccc(F)cc2)c2ccc(F)cc2)CC1 (centres undefined)	28	6.93	–	–	–	–
CC(=O)OC(CSc1ccccc1)CN1CCN(CCCC(c2ccc(F)cc2)c2ccc(F)cc2)CC1 (centres undefined)	20	6.55	–	–	–	–
CN(CC(O)CN1CCN(CCCC(c2ccc(F)cc2)c2ccc(F)cc2)CC1)c1ccccc1 (centres undefined)	19	5.83	–	–	–	–
CC(=O)OC(CNc1ccccc1)CN1CCN(CCCC(c2ccc(F)cc2)c2ccc(F)cc2)CC1 (centres undefined)	13	6.38	–	–	–	–
OC(CNCc1ccccc1)CN1CCN(CCCC(c2ccc(F)cc2)c2ccc(F)cc2)CC1 (centres undefined)	6.9	5.85	–	–	–	–
COC(CSc1ccccc1)CN1CCN(CCCC(c2ccc(F)cc2)c2ccc(F)cc2)CC1 (centres undefined)	20	6.69	–	–	–	–
Cc1c(C)c2c(c(C)c1O)CC[C@@](C)(CCC[C@H](C)CCC[C@H](C)CCCC(C)C)O2 [ALPHA-TOCOPHEROL]	1.5	–	–	–	–	–
Fc1ccc(C(c2ccc(F)cc2)N2CCN(C/C=C/c3ccccc3)CC2)cc1 [FLUNARIZINE]	–	5.98	–	–	–	–
